Results published in patent US20140341813A1, “INDOCYANINE GREEN-CONTAINING PARTICLE AND METHOD OF PRODUCING THE PARTICLE” (CANON KABUSHIKI KAISHA, priority 2013, published 2014).

Assays:
rat [1] = assay: Urea 50% lethal dose LD50, oral
rat [2] = conditions: intravenous injection; cited from earlier work
rat [3] = conditions: oral; cited from earlier work
mouse = conditions: intravenous injection; cited from earlier work
[4] = Spectral shift of ICG aqueous solutions before and after heating (J-aggregate formation and suppression); format: physicochemical
Procedure: FIG. 4 and FIG. 5 show the results of wavelength shifts based on additive concentration series. […] The axis of abscissa of each square indicates a wavelength, and values at its left and right ends are 500 nm and 950 nm, respectively, and the axis of ordinate thereof indicates an absorbance and its scale is arbitrary. The additive in this case refers to urea.
A third square from the left end corresponds to a solution to which the additive is added at a concentration one-half as high as that of the second square.
A second square from the left end corresponds to a 1.5 mM ICG aqueous solution, and an upper stage and a lower stage show spectra before and after the heating, respectively. A third square corresponds to an ICG aqueous solution having a concentration one-half as high as that of the second square.

Water solubility of urea = format: physicochemical; conditions: calculated from water solubility and molecular weight 60.06

For `NC(N)=O` [urea], the “ratio of urea amount in 10 ml of injection at 10 M to LD50 in terms of a body weight of 50 kg” value (rat [1]; 6.006 g/425 g) is listed as 1.41×10^−2, the “50% lethal dose converted in terms of a body weight of 50 kg” value (rat [1]; 8.5 g/kg × 50 kg) is listed as 425 g and the LD50 (rat [2]) is listed as “around 5,000 mg/kg”. For the same compound, the “50% lethal dose LD50” value (rat [3]) was 8,500 mg/kg, the LD50 (mouse) was “around 5,000 mg/kg” and the “J-aggregation of ICG after heating with urea added” value ([4]; 1.5 mM ICG aqueous solution + 100 mM urea, heating at 60° C. for 30 minutes) was “the J-aggregation is suppressed”. The “formation of the H-aggregate of ICG (absorption around 700 nm) with urea added” value ([4]; 1.5 mM ICG, urea added) was “suppresses the formation of the H-aggregate” and the “amount of urea that dissolves (molar)” value (Water solubility of urea) was “up to 17.9 M”.
With `O=C(O)CC(O)(CC(=O)O)C(=O)O` [citric acid] the “J-aggregate formation of ICG in citric acid after heating” value ([4]; 1.5 mM ICG, citric acid 100 mM or less, free of urea, 60° C. for 30 minutes) was “a J-aggregate is formed” and the “citric acid concentration above which agglomeration precipitation occurs” value ([4]; 1.5 mM ICG, free of urea, 60° C. for 30 minutes) was “higher than 12.5 mM”.
